Reference: patent US20240287089A1, “Preparation and Uses of 7-Azaindenoisoquinolines” (Purdue Research Foundation, priority 0001, published 2024)
Read-outs that look alike come from different tables or passages of the source.

Key:
[1] = system: DU-145 (Prostate); experiment: NCI-60 cytotoxicity assay; assay type: cell-based, human; conditions: Homo sapiens; DU-145 prostate; 48 h, sulforhodamine B; read-out: Comparative Cytotoxicity GI50, Prostate DU-145
Experimental: (§1) The antiproliferative activities of the indenoisquinoline compounds are determined in the NCI-60 cancer cell lines of the National Cancer Institute Developmental Therapeutics Program (NCI-DTP). […] Cancer cells are incubated with the test compounds at five concentrations ranging from 100 μM to 10 nM for 48 h. After the treated cancer cells are stained with sulforhodamine B dye, the percentage growth is plotted as a function of the common logarithm of the tested compound concentration. […] The approximate average of GI50 values across the entire panel of NCI-60 cancer cell lines for each compound is recorded as the MGM value.
(§2) NCI-60 Cytotoxicity Assay. Compounds were submitted to the National Cancer Institute Developmental Therapeutic Program to determine their growth-inhibitory potentials in NCI-60 cell lines. All compounds satisfied the pre-screening proceeded into the 5-dose cell viability assay, in which cells were treated for 48 h at 5 dosages ranging from 100 μM to 10 nM.

[2] = system: HCT-116 (Colon); experiment: NCI-60 cytotoxicity assay; assay type: cell-based, human; conditions: Homo sapiens; HCT-116 colon; 48 h, sulforhodamine B; read-out: Comparative Cytotoxicity GI50, Colon HCT-116
Experimental: as §1, §2

[3] = system: HOP-62 (Lung); experiment: NCI-60 cytotoxicity assay; assay type: cell-based, human; conditions: Homo sapiens; HOP-62 lung; 48 h, sulforhodamine B; read-out: Comparative Cytotoxicity GI50, Lung HOP-62
Experimental: as §1, §2

[4] = system: MCF7 (Breast); experiment: NCI-60 cytotoxicity assay; assay type: cell-based, human; conditions: Homo sapiens; MCF7 breast; 48 h, sulforhodamine B; read-out: Comparative Cytotoxicity GI50, Breast MCE7
Experimental: as §1, §2

[5] = system: OVCAR-3 (Ovarian); experiment: NCI-60 cytotoxicity assay; assay type: cell-based, human; conditions: Homo sapiens; OVCAR-3 ovarian; 48 h, sulforhodamine B; read-out: Comparative Cytotoxicity GI50, Ovarian OVCAR-3
Experimental: as §1, §2

[6] = system: SN12C (Renal); experiment: NCI-60 cytotoxicity assay; assay type: cell-based, human; conditions: Homo sapiens; SN12C renal; 48 h, sulforhodamine B; read-out: Comparative Cytotoxicity GI50, Renal SN12C
Experimental: as §1, §2

[7] = system: UACC-62 (Melanoma); experiment: NCI-60 cytotoxicity assay; assay type: cell-based, human; conditions: Homo sapiens; UACC-62 melanoma; 48 h, sulforhodamine B; read-out: Comparative Cytotoxicity GI50, Melanoma UACC-62
Experimental: as §1, §2

[8] = system: SF-539 (CNS); experiment: NCI-60 cytotoxicity assay; assay type: cell-based; conditions: Homo sapiens; SF-539 CNS; 48 h, sulforhodamine B; read-out: Comparative Cytotoxicity GI50, CNS SF-539
Experimental: as §1, §2

[9] = system: NCI-60 cancer cell lines; experiment: NCI-60 cytotoxicity assay, MGM; assay type: cell-based; conditions: Homo sapiens; entire panel of NCI-60 cancer cell lines; read-out: MGM (approximate average of GI50 values across the NCI-60 panel)
Experimental: as §1, §2

[10] = system: AMO-1; experiment: MTS GI50, Myc-dependent panel; assay type: cell-based; conditions: Homo sapiens
Experimental: (§3) Cytotoxicity Results in Myc-dependent Cancer Cell Lines.
(§4) MTS Cell Viability IC50 Assay. Drug solutions for MTS IC50 assays of suspension cell lines were made from DMSO stocks by serial-dilutions in 1×PBS (10010-031, Gibco). To set up treatments, drug solutions were plated in triplicates to 96-well tissue culture plates, to which cell-containing media was added to a total volume of 100 μL/well. 100%-viability controls were untreated cells. 2000 cells/well were plated for all suspension cell lines except 3000 cells/well for KMS-27 and 10000 cells/well for CHLA-32. Blanks were cell-free media. Drug treatments were maintained for 72 hr at 37° C. with 5% CO2. To quantify cells, CellTiter 96 AQueous MTS Reagent Powder (G1111, Promega) was dissolved and mixed with phenazine methosulfate (PMS, Sigma-Aldrich P9625) according to manufacturer's instructions. MTS/PMS mix ([…]) was added to treatment wells, 100%-viability control wells, and blank wells. Colors were developed at 37° C. with 5% CO2 for 4 h and absorbance at 490 nm was measured by BioTek Synergy 4 system. To obtain %-viability, A490 values were corrected by blank subtraction, normalized to 100%-viability control, and averaged. Average %-viabilities were plotted against drug dosages to obtain dose-response curves. […] For adherent cell lines, the MTS IC50 assays were conducted the same way as for suspension cell lines except for cell plating and drug treatment. For cell plating, 50 μL of 2000 cells were plated in triplicates to a 96-well tissue culture plate. Cells were allowed sufficient time to become adherent. Serial-diluted drug solutions were made the same way as in the MTS IC50 assays. To set up treatments, drug solutions were mixed with media to two-fold of the final concentrations, and 50 μL of such drug-media mix was then added to 50 μL of plated cells.

[11] = system: ARD; experiment: MTS GI50, Myc-dependent panel; assay type: cell-based; conditions: 72 h
Experimental: as §3, §4

[12] = system: CCRF-CRM; experiment: MTS GI50, Myc-dependent panel; assay type: cell-based; conditions: 72 h
Experimental: as §3, §4

[13] = system: CHLA-32; experiment: MTS GI50, Myc-dependent panel; assay type: cell-based
Experimental: as §3, §4

[14] = system: CHLA-99; experiment: MTS GI50, Myc-dependent panel; assay type: cell-based
Experimental: as §3, §4

[15] = system: HL-60; experiment: MTS GI50, Myc-dependent panel; assay type: cell-based; conditions: Homo sapiens, HL-60, 72 h
Experimental: as §3, §4

[16] = system: K-562; experiment: MTS GI50, Myc-dependent panel; assay type: cell-based; conditions: Homo sapiens
Experimental: as §3, §4

[17] = system: KMS-27; experiment: MTS GI50, Myc-dependent panel; assay type: cell-based; conditions: KMS-27, 72 h
Experimental: as §3, §4

[18] = system: Kasumi-1; experiment: MTS GI50, Myc-dependent panel; assay type: cell-based; conditions: Homo sapiens
Experimental: as §3, §4

[19] = system: L-363; experiment: MTS GI50, Myc-dependent panel; assay type: cell-based; conditions: Homo sapiens, L-363, 72 h
Experimental: as §3, §4

[20] = system: MCF-7; experiment: MTS GI50, Myc-dependent panel; assay type: cell-based; conditions: Homo sapiens
Experimental: as §3, §4

[21] = system: MDA-MB-231; experiment: MTS GI50, Myc-dependent panel; assay type: cell-based; conditions: Homo sapiens, MDA-MB-231, 72 h
Experimental: as §3, §4

[22] = system: MOLT-4; experiment: MTS GI50, Myc-dependent panel; assay type: cell-based; conditions: Homo sapiens, MOLT-4, 72 h
Experimental: as §3, §4

[23] = system: RD-ES; experiment: MTS GI50, Myc-dependent panel; assay type: cell-based; conditions: 72 h
Experimental: as §3, §4

[24] = system: RPMI-8226; experiment: MTS GI50, Myc-dependent panel; assay type: cell-based; conditions: Homo sapiens, RPMI-8226, 72 h
Experimental: as §3, §4

[25] = system: RS4;11; experiment: MTS GI50, Myc-dependent panel; assay type: cell-based; conditions: Homo sapiens
Experimental: as §3, §4

[26] = system: SK-N-MC; experiment: MTS GI50, Myc-dependent panel; assay type: cell-based; conditions: Homo sapiens, 72 h
Experimental: as §3, §4

[27] = system: TC-106; experiment: MTS GI50, Myc-dependent panel; assay type: cell-based
Experimental: as §3, §4

[28] = system: TC-32; experiment: MTS GI50, Myc-dependent panel; assay type: cell-based; conditions: Homo sapiens, TC-32, 72 h
Experimental: as §3, §4

[29] = system: TC-71; experiment: MTS GI50, Myc-dependent panel; assay type: cell-based; conditions: TC-71, 72 h
Experimental: as §3, §4

[30] = system: THP-1; experiment: MTS GI50, Myc-dependent panel; assay type: cell-based; conditions: Homo sapiens, THP-1, 72 h
Experimental: as §3, §4

[31] = target: 3′-TAMRA-labeled MycG4 DNA; experiment: Fluorescence binding assay; conditions: 20° C., 100 mM K+ buffer, pH 7.0; read-out: Apparent Binding Affinity Kd, app
Experimental: Binding Affinity to the Myc G-Quadruplex. Binding affinity of eight 7-aza-8,9-methylenedioxyindenoisoquinolines to MycG4 was determined using a fluorescence binding assay with a 3′-TAMRA-labeled MycG4 DNA. Monitoring TAMRA emission upon drug titration afforded binding isotherms, from which apparent binding affinities, Kd,app, were derived.
Fluorescence-Based Binding Assays. Fluorescence-based binding assays were performed on a Jasco FP-8300 spectrofluorometer equipped with a temperature controller at 20° C. in a quartz cuvette with a 10 mm path length. 3′-TAMRA-labeled MycG4 DNA (Sigma-Aldrich) was diluted to 20 nM using a 75 mM KCl/25 mM potassium phosphate buffer, pH 7.0. […] Fluorescence intensity at 580 nm, the maximum for the free DNA, was plotted against drug:DNA ratio. The apparent binding dissociation constant, Kd,app, was derived for the binding of each compound. Using OriginPro software (OriginLab Corp., United States) the change in fluorescence intensity was fitted to a one-site binding equation,
where B0 is the initial fluorescence intensity, B is maximum change in fluorescence intensity, R is DNA concentration, and L is drug:DNA ratio.

[32] = system: RAJI lymphoma cells; experiment: MTS cell viability IC50 assay; assay type: cell-based; conditions: 72 h
Experimental: Cytotoxicity Results in Raji Non-Hodgkin's Lymphoma Cells. MTS experiments were then conducted to test the anti-proliferative effects of 7-aza-8,9-methylenedioxyindenoisoquinolines in Raji cells. Cells were incubated at 2-2000 nM of each drug for 72 h, and cell viabilities were quantified using the MTS assay. […] This potency trend generally correlated with the western blot results, in which G106 and G108 […] show weaker Myc downregulation.
as §4

[33] = AMO1, AMO-1, 72 h, read-out: GI50
[34] = K562, K-562, 72 h, read-out: GI50
[35] = MCF7, MCF-7, 72 h, read-out: GI50

## COc1cnc2c(c1)C(=O)c1c-2n(CCCNCCO)c(=O)c2cc(OC)c(OC)cc12 [A12]
[1]
  GI50: 730 nM
[2]
  GI50: 1150 nM
[3]
  GI50: 350 nM
[4]
  GI50: 170 nM
[5]
  GI50: 4520 nM
[6]
  GI50: 3280 nM
[7]
  GI50: 1170 nM
[8]
  GI50: 490 nM
[9]
  GI50: 2090 nM

## CC[C@@]1(O)C(=O)OCc2c1cc1n(c2=O)Cc2cc3ccccc3nc2-1 [CPT, Camptothecin]
[10]; [33]
  GI50: 20 nM
[11]; ARD, read-out: GI50
  GI50: 11 nM
[12]; CCRF-CRM, read-out: GI50
  GI50: 4 nM
[13]; CHLA-32, 72 h, read-out: GI50
  GI50: 6 nM
[14]; CHLA-99, 72 h, read-out: GI50
  GI50: 4 nM
[15]; read-out: GI50
  GI50: 27 nM
[16]; [34]
  GI50: 22 nM
[17]; read-out: GI50
  GI50: 13 nM
[18]; Kasumi-1, 72 h, read-out: GI50
  GI50: 85 nM
[19]; read-out: GI50
  GI50: 10 nM
[20]; [35]
  GI50: 200 nM
[21]; read-out: GI50
  GI50: 37 nM
[22]; read-out: GI50
  GI50: < 2 nM
[23]; read-out: GI50
  GI50: 5 nM
[24]; read-out: GI50
  GI50: 14 nM
[25]; RS4;11, 72 h, read-out: GI50
  GI50: 6 nM
[26]; read-out: GI50
  GI50: 9 nM
[27]; TC-106, 72 h, read-out: GI50
  GI50: 11 nM
[28]; read-out: GI50
  GI50: 7 nM
[29]; read-out: GI50
  GI50: 8 nM
[30]; read-out: GI50
  GI50: 55 nM

## COc1cc2c3c(n(CCCN4CCC[C@H]4C(N)=O)c(=O)c2cc1OC)-c1nc2c(cc1C3=O)OCO2 [G106, (S)-1-(3-(2,3-dimethoxy-5,12-dioxo-5,12-dihydro-6H-[1,3]dioxolo [4″,5″:5′,6′]pyrido[3′,2′:4,5]cyclopenta[1,2-c]isoquinolin-6-yl)propyl)pyrrolidine-2-carboxamide]
[31]
  Kd: 55 nM
[32]; RAJI
  IC50: 1980 nM

## COc1cc2c3c(n(CCCNCCO)c(=O)c2cc1OC)-c1cc2c(cc1C3=O)OCO2 [LMP517]
[31]
  Kd: 109 nM
[32]; Homo sapiens, Raji
  IC50: 53 nM
[10]; AMO1, 72 h
  GI50: 69 nM
[11]
  GI50: 27 nM
[12]
  GI50: 11 nM
[13]; 72 h
  GI50: 37 nM
[14]; 72 h
  GI50: 44 nM
[15]
  GI50: 137 nM
[16]; K562, 72 h
  GI50: 74 nM
[17]
  GI50: 44 nM
[18]; Kasumi 1, 72 h
  GI50: 148 nM
[19]
  GI50: 42 nM
[20]; MCF7, 72 h
  GI50: 418 nM
[21]
  GI50: 319 nM
[22]
  GI50: 3 nM
[23]
  GI50: 9 nM
[24]
  GI50: 82 nM
[25]; RS4-11, 72 h
  GI50: 7 nM
[26]
  GI50: 62 nM
[27]; 72 h
  GI50: 51 nM
[28]
  GI50: 12 nM
[29]
  GI50: 58 nM
[30]
  GI50: 93 nM

## COc1cc2c3c(n(CCCn4ccnc4)c(=O)c2cc1OC)-c1cc2c(cc1C3=O)OCO2 [LMP776, indimitecan]
[31]
  Kd: 69 nM
[32]; Homo sapiens, Raji
  IC50: 92 nM
[10]; [33]
  GI50: 191 nM
[11]; ARD, read-out: GI50
  GI50: 33 nM
[12]; CCRF-CRM, read-out: GI50
  GI50: 70 nM
[13]; CHLA-32, 72 h, read-out: GI50
  GI50: 93 nM
[14]; CHLA-99, 72 h, read-out: GI50
  GI50: 276 nM
[15]; read-out: GI50
  GI50: 894 nM
[16]; [34]
  GI50: 341 nM
[17]; read-out: GI50
  GI50: 127 nM
[18]; Kasumi-1, 72 h, read-out: GI50
  GI50: 533 nM
[19]; read-out: GI50
  GI50: 53 nM
[20]; [35]
  GI50: > 2000 nM
[21]; read-out: GI50
  GI50: 329 nM
[22]; read-out: GI50
  GI50: 42 nM
[23]; read-out: GI50
  GI50: 227 nM
[24]; read-out: GI50
  GI50: 139 nM
[25]; RS4;11, 72 h, read-out: GI50
  GI50: 59 nM
[26]; read-out: GI50
  GI50: 225 nM
[27]; TC-106, 72 h, read-out: GI50
  GI50: 250 nM
[28]; read-out: GI50
  GI50: 179 nM
[29]; read-out: GI50
  GI50: 232 nM
[30]; read-out: GI50
  GI50: 273 nM
